Patent EP0558245A1, “Heterobicyclic compounds as antagogists of alpha-1 adrenergic and SHT1A receptors” (priority 1992, dated 1993)
Structures can show the parent of a compound that is named as a salt. Where two headings read alike, the source gives them in different places.

Assays:
[1] = target: T1, 5HT1A receptors (Rattus norvegicus, UniProt P19327); assay: [3H]8-OH-DPAT binding (5HT1A receptors), rat hippocampus membranes
T1 construct: Rat hippocampi were homogenized; from tissue; host or cells: rat hippocampus membranes
T1 sequence (P19327 1-422): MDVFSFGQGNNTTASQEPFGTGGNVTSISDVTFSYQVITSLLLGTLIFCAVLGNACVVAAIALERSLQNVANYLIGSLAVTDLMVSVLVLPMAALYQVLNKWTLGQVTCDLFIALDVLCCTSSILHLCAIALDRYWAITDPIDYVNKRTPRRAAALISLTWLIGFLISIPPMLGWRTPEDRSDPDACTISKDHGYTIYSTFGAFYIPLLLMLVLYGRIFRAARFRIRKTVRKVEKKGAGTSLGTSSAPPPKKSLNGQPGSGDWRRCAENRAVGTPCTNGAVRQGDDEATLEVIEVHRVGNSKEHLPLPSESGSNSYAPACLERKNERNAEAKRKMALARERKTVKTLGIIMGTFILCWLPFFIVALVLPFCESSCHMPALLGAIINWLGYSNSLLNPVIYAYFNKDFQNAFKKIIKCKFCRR
Experimental: Rat hippocampi were homogenized in 50 volumes of original wet weight of ice-cold 50 mM Tris-HCl buffer pH 7.4. The homogenates were centrifuged at 48,000 x g for 10 minutes, and the pellets were resuspended in the same volume of ice-cold buffer, incubated for 10 minutes at 37°C, centrifuged and resuspended two more times. The final pellets obtained were resuspended in the same volume of buffer and incubated according to the conditions reported in the table below.
(§1) The incubations were terminated after the appropriate time (see table) by rapid filtration through Whatman GF/B filters using a Brandel cell harvester. The filters were washed twice with 15 ml of ice-cold buffer (see table). The radioactivity retained on the filters was determined by liquid scintillation counting. Nonspecific binding (which amounted generally to 10-30%) was evaluated by adding high concentrations of the specific displacers (see table). All the compounds were initially tested at 1x10⁻⁶ M concentration, and in the presence of significant displacing activity, a complete competition curve was generated (down to a concentration of 10⁻¹¹ M). All the samples were run in triplicate.
The competition curves were always analyzed (to evaluate the IC₅₀ values) by non linear curve fitting of the logistic equation according to the method reported by De Lean et al. (Am. J. Physiol., 235, E97, 1978), utilizing the ALLFIT program [publically available from the National Institutes of Health (N.I.H.) Bethesda, Maryland, USA] written for the IBM PC.

[2] = target: α₁ receptors; assay: [3H]prazosin binding (α1 receptors), rat cerebral cortex membranes; settings: rat cerebral cortex crude membranes, [3H]prazosin 0.35 nM, 25°C 30 min; read-out: Receptor Binding IC50 (nM) α1
Experimental: Rat cerebral cortices were homogenized in 50 volumes of original wet weight of ice-cold 50 mM Tris-HCl buffer pH 7.4. The homogenates were centrifuged at 48,000 x g for 10 minutes, and the pellets were resuspended in the same volume of ice-cold buffer, centrifuged and resuspended two more times. The final pellets obtained were resuspended in the same volume of buffer and incubated according to the conditions reported in the table below.
as §1

[3] = system: rat bladder strips; assay: K+-induced contractions of rat bladder strips; format: cell-based
Experimental: The whole bladder of the rat was removed and immediately placed in Krebs solution warmed at 37°C. […] Each strip was placed in a 10 ml organ bath and connected, under a constant load of 1 g, to an isometric strain gauge (DY-1 Basile, Comerio, Varese, Italy). […] After a 60 minutes equilibration period the strips were exposed to 80 mM KCl (final concentration). […] When the tonic contraction was stable, the strips were washed and 30 minutes later a new contraction was induced. After having recorded two or more reproducible responses, one concentration of the tested drugs was added to the bath and 30 minutes later a new contraction was induced. The experimental groups consisted of at least two preparations taken from different animals for each concentration of drug tested. The IC₅₀ values of inhibition of agonist-induced contractions were evaluated by linear regression analysis.

[4] = Acute toxicity in mice after intraperitoneal and oral administration; settings: mouse, in vivo, female albino Swiss mice, mortality recorded 7 days after administration
Experimental: Male Sprague Dawley rats [Crl: CD' BR] of 200-300 g b.w., female Albino Swiss mice [Crl: CD-1 (ICR) BR] 20-30 g b.w., and male Beagle dogs (10-12 kg b.w.) were obtained from Charles River, Italy and Nossan (Correzzana, Milan, Italy), respectively. Animals were housed with free access to food and water and maintained on forced light-dark cycle at 22-24°C until the day of experiments.
The acute toxicity of synthesized compounds was evaluated in female albino Swiss mice after intraperitoneal and oral administration. Four logarithmic scaled doses of the compounds were dissolved or suspended in 0.5% Methocel and administered in a volume of 10 ml/kg to groups of 4 mice/dose. Mortality was recorded 7 days after the administration. Data analysis: the LD₅₀ values and their fiducial limits were calculated according to the method of Weil (Biometrics, 8, 249, 1952).

[5] = rat hippocampus crude membranes, [3H]8-OH-DPAT 1.0 nM, 25°C 30 min, read-out: Receptor Binding IC50 (nM) 5-HT1a
[6] = ip, intraperitoneal, read-out: Acute Toxicity in Mice LD50 (mg/kg) i.p.
[7] = oral, read-out: Acute Toxicity in Mice LD50 (mg/kg) p.o.

SMILES: COc1ccccc1N1CCN(CCCCOc2cccc3c(=O)c(C)c(-c4ccccc4)oc23)CC1.Cl.Cl [dihydrochloride]
- IC50 [1, 5]: 53 nM
- IC50 [2]: 43 nM
- IC50 ([3]; read-out: K+ Stimulation of Rat Bladder IC50 (μM) Contractions Phasic): 0.7 µM
- IC50 ([3]; read-out: K+ Stimulation of Rat Bladder IC50 (μM) Contractions Tonic): 1.4 µM

SMILES: CCOC(CN1CCN(c2ccccc2OC)CC1)c1cccc2c(=O)c(C)c(-c3ccccc3)oc12.Cl (stereo not shown) [Example 22, 8-{1-ethoxy-2-[4-(2-methoxyphenyl)-1-piperazinyl]-ethyl}-3-methyl-4-oxo-2-phenyl-4H-1-benzopyran hydrochloride]
- IC50 [1, 5]: 48 nM
- LD50 at 168 h [4, 6]: > 500 mg/kg
- LD50 at 168 h [4, 7]: > 2000 mg/kg
- IC50 [2]: 117 nM

SMILES: COc1ccccc1N1CCN(CCC(=O)N(C)c2cccc3c(=O)c(C)c(-c4ccccc4)oc23)CC1.CS(=O)(=O)O [Example 63, 8-{N-methyl-3-[4-(2-methoxyphenyl)-1-piperazinyl]-propionamido}-3-methyl-4-oxo-2-phenyl-4H-1-benzopyran methanesulphonate]
- IC50 [1, 5]: 99 nM
- LD50 at 168 h [4, 6]: 309 mg/kg
- LD50 at 168 h [4, 7]: 479 mg/kg
- IC50 [2]: 194 nM

SMILES: COc1ccccc1N1CCN(CC(=O)N(C)Cc2cccc3c(=O)c(C)c(-c4ccccc4)oc23)CC1 [Example 26, 8-{N-methyl-N-[4-(2-methoxyphenyl)-1-piperazinyl]-acetamidomethyl}-3-methyl-4-oxo-2-phenyl-4H-1-benzopyran hydrochloride hydrate]
- IC50 [1, 5]: > 1000 nM
- LD50 at 168 h [4, 6]: > 500 mg/kg
- LD50 at 168 h [4, 7]: > 2000 mg/kg
- IC50 [2]: 270 nM

SMILES: CS(=O)(=O)O.Cc1c(-c2ccccc2)oc2c(C(=O)NCCCN3CCC(c4ccccc4)(c4ccccc4)CC3)cccc2c1=O [Example 55, 8-[3-(4,4-diphenyl-1-piperidinyl)-propylcarbamoyl]-3-methyl-4-oxo-2-phenyl-4H-1-benzopyran methansulphonate]
- IC50 [1]: > 1000 nM
- LD50 at 168 h [4, 6]: 128 mg/kg
- LD50 at 168 h [4, 7]: ≥ 2000 mg/kg
- IC50 [2]: 291 nM

SMILES: COc1ccccc1N1CCN(CCCN(C)c2cccc3c(=O)c(C)c(-c4ccccc4)oc23)CC1 [Example 35, 8-{N-methyl-3-[4-(2-methoxyphenyl)-1-piperazinyl]-propylamino}-3-methyl-4-oxo-2-phenyl-4H-1-benzopyran hydrochloride hemihydrate]
- IC50 [1, 5]: 8 nM
- LD50 at 168 h [4, 6]: 329 mg/kg
- LD50 at 168 h [4, 7]: 959 mg/kg
- IC50 [2]: 15 nM

SMILES: COc1ccccc1N1CCN(CCCCNS(=O)(=O)c2cccc3c(=O)c(C)c(-c4ccccc4)oc23)CC1.CS(=O)(=O)O.CS(=O)(=O)O [Example 67, 8-{4-[4-(2-methoxyphenyl)-1-piperazinyl]-butylsulphamoyl}-3-methyl-4-oxo-2-phenyl-4H-1-benzopyran dimethanesulphonate]
- IC50 [1, 5]: 4 nM
- LD50 at 168 h [4, 6]: 508 mg/kg
- LD50 at 168 h [4, 7]: 1870 mg/kg
- IC50 [2]: 4 nM

SMILES: Cc1c(-c2ccccc2)oc2c(C(=O)OCCCN3CCN(c4ccccc4Cl)CC3)cccc2c1=O.Cl.Cl [Example 7, 8-{3-[4-(2-chlorophenyl)-1-piperazinyl]-propoxycarbonyl}-3-methyl-4-oxo-2-phenyl-4H-1-benzopyran dihydrochloride]
- IC50 [1, 5]: 155 nM
- LD50 at 168 h [4, 6]: 384 mg/kg
- LD50 at 168 h [4, 7]: 1920 mg/kg
- IC50 [2]: 86 nM

SMILES: COc1ccccc1N1CCN(CCNC(=O)Nc2cccc3c(=O)c(C)c(-c4ccccc4)oc23)CC1.CS(=O)(=O)O [Example 38, 8-{2-[4-(2-methoxyphenyl)-1-piperazinyl]-ethylureido}-3-methyl-4-oxo-2-phenyl-4H-1-benzopyran methanesulphonate]
- IC50 [1, 5]: 344 nM
- LD50 at 168 h [4, 6]: > 500 mg/kg
- LD50 at 168 h [4, 7]: > 2000 mg/kg
- IC50 [2]: 20 nM

SMILES: COc1ccccc1N1CCN(CCCN(C(C)=O)c2cccc3c(=O)c(C)c(-c4ccccc4)oc23)CC1.Cl.O [Example 36, 8-{N-acetyl-3-[4-(2-methoxyphenyl)-1-piperazinyl]-propylamino}-3-methyl-4-oxo-2-phenyl-4H-1-benzopyran hydrochloride hydrate]
- IC50 [1, 5]: 54 nM
- LD50 at 168 h [4, 6]: > 500 mg/kg
- LD50 at 168 h [4, 7]: > 2000 mg/kg
- IC50 [2]: 18 nM

SMILES: CS(=O)(=O)O.Cc1c(-c2ccccc2)oc2c(C(=O)NCCCN3CCC(c4ccccc4)CC3)cccc2c1=O [Example 54, 8-[3-(4-phenyl-1-piperidinyl)-propylcarbamoyl]-3-methyl-4-oxo-2-phenyl-4H-1-benzopyran methansulphonate]
- IC50 [1, 5]: 143 nM
- LD50 at 168 h [4, 6]: 106 mg/kg
- LD50 at 168 h [4, 7]: 421 mg/kg
- IC50 [2]: 35 nM

SMILES: Cc1ccccc1N1CCN(CC(O)c2cccc3c(=O)c(C)c(-c4ccccc4)oc23)CC1.Cl (stereo not shown) [Example 18, 8-{1-hydroxy-2-[4-(2-methylphenyl)-1-piperazinyl]-ethyl}-3-methyl-4-oxo-2-phenyl-4H-1-benzopyran hydrochloride]
- IC50 [1, 5]: > 1000 nM
- LD50 at 168 h [4, 6]: 457 mg/kg
- LD50 at 168 h [4, 7]: 3000 mg/kg
- IC50 [2]: 270 nM

SMILES: Cc1c(-c2ccccc2)oc2c(C(=O)NCCCN3CCN(c4ccccc4)CC3)cccc2c1=O [Example 15, 8-[3-(4-phenyl-1-piperazinyl)-propylcarbamoyl]-3-methyl-4-oxo-2-phenyl-4H-1-benzopyran monohydrochloride hemihydrate]
- IC50 [1, 5]: 131 nM
- LD50 at 168 h [4, 6]: 306 mg/kg
- LD50 at 168 h [4, 7]: 496 mg/kg
- IC50 [2]: 8 nM

SMILES: COc1ccccc1N1CCN(CCCNS(=O)(=O)c2cccc3c(=O)c(C)c(-c4ccccc4)oc23)CC1.CS(=O)(=O)O [Example 61, 8-{3-[4-(2-methoxyphenyl)-1-piperazinyl]-propylsulphamoyl}-3-methyl-4-oxo-2-phenyl-4H-1-benzopyran methanesulphonate]
- IC50 [1, 5]: 11 nM
- LD50 at 168 h [4, 6]: 315 mg/kg
- LD50 at 168 h [4, 7]: 592 mg/kg
- IC50 [2]: 36 nM

SMILES: COc1ccccc1N1CCN(CCCCNC(=O)c2cccc3c(=O)c(C)c(-c4ccccc4)oc23)CC1.CS(=O)(=O)O [Example 60, 8-{4-[4-(2-methoxyphenyl)-1-piperazinyl]-butylcarbamoyl}-3-methyl-4-oxo-2-phenyl-4H-1-benzopyran methansulphonate]
- IC50 [1, 5]: 45 nM
- LD50 at 168 h [4, 6]: 203 mg/kg
- LD50 at 168 h [4, 7]: 329 mg/kg
- IC50 [2]: 25 nM

SMILES: COc1ccccc1N1CCN(CCN(Cc2cccc3c(=O)c(C)c(-c4ccccc4)oc23)C(C)=O)CC1.Cl [Example 24, 8-{N-acetyl-2-[4-(2-methoxyphenyl)-1-piperazinyl]-ethylaminomethyl}-3-methyl-4-oxo-2-phenyl-4H-1-benzopyran hydrochloride]
- IC50 [1, 5]: 212 nM
- LD50 at 168 h [4, 6]: > 1000 mg/kg
- LD50 at 168 h [4, 7]: > 3000 mg/kg
- IC50 [2]: 690 nM

SMILES: Cc1c(-c2ccccc2)oc2c(C(=O)NCCCNCC3COc4ccccc4O3)cccc2c1=O (stereo not shown) [Example 52, 8-{3-[2-(1,4-benzodioxanyl)methylamino]propylcarbamoyl}-3-methyl-4-oxo-2-phenyl-4H-1-benzopyran methansulphonate]
- IC50 [1, 5]: 2 nM
- LD50 at 168 h [4, 6]: 127 mg/kg
- LD50 at 168 h [4, 7]: 224 mg/kg
- IC50 [2]: 89 nM

SMILES: COc1ccccc1N1CCN(CCOC(=O)c2cccc3c(=O)c(C)c(-c4ccccc4)oc23)CC1.Cl.Cl [Example 6, 8-{2-[4-(2-methoxyphenyl)-1-piperazinyl]-ethoxycarbonyl}-3-methyl-4-oxo-2-phenyl-4H-1-benzopyran dihydrochloride]
- IC50 [1, 5]: 1000 nM
- LD50 at 168 h [4, 6]: 233 mg/kg
- IC50 [2]: 107 nM

SMILES: COc1ccccc1OCCNCCCNC(=O)c1cccc2c(=O)c(C)c(-c3ccccc3)oc12.Cl [Example 14, 8-{3-[2-(2-methoxyphenoxy)-ethylamino]-propylcarbamoyl}-3-methyl-4-oxo-2-phenyl-4H-1-benzopyran hydrochloride]
- IC50 [1, 5]: 6 nM
- LD50 at 168 h [4, 6]: 140 mg/kg
- LD50 at 168 h [4, 7]: 559 mg/kg
- IC50 [2]: 61 nM

SMILES: Cc1c(-c2ccccc2)oc2c(C(=O)NCCCN3CCC(n4c(=O)[nH]c5ccccc54)CC3)cccc2c1=O [Example 57, 8-{3-[4-(2-oxo-1-benzimidazolinyl)-1-piperidinyl]-propylcarbamoyl-}-3-methyl-4-oxo-2-phenyl-4H-1-benzopyran]
- IC50 [1, 5]: > 1000 nM
- LD50 at 168 h [4, 6]: 500 mg/kg
- LD50 at 168 h [4, 7]: > 2000 mg/kg
- IC50 [2]: 69 nM
